Assays:
Sprague Dawley rats [1] = assay: Coronary artery ligation model, regional myocardial ischemia in vivo, Tpo given 15 min prior to ischemia; parameters: species or system rat
Procedure: (§1) Animals used in this study were adult male Sprague Dawley rats (200-350 g, generally 300 g). Animals were housed under standard conditions and allowed to feed ad lib. The Animal Care and Use Committee of the Medical College of Wisconsin approved all procedures performed in accordance with the regulations adopted by the National Institutes of Health.
Rats were anesthetized with sodium pentobarbital (50 mg/kg i.p.). Heparin was administered (150 U/kg i.p.) to prevent the formation of a thrombus in the coronary vasculature. A myocardial infarction was produced via the ligation of the left main artery using 6-0 prolene suture (See, e.g., Clements-Jewery, et al., Br. J. Pharmacol. 135:807-815, 2002; Farkas, et al., J. Cardiovasc. Pharmacol. 39:412-424, 2002). The left main coronary artery was identified and ligated with a 5-0 Prolene suture threaded through a polyethylene tube to act as an occluder. A control group included sham operated hearts in which only a suture was passed around the left main coronary artery was performed.
Animals were treated with Tpo (0.005-0.5 micrograms/kg) administered intravenously for 15 minutes prior to the onset of ischemia. Regional ischemia and reperfusion were induced by tightening the occluder and by releasing it. Hearts were then subjected to 30 minutes regional ischemia followed by 3 hours reperfusion. Recovery of left ventricular developed pressure and infarct size/area at risk at 3 hours reperfusion were used to assess resistance to myocardial ischemia. For characterization of infarction size, hearts were perfused with 10 ml bicarbonate buffer containing triphenyltetrazolium chloride (SIGMA) at 37° C.
The heart was sectioned in 2 mm segments from apex to atrio-ventricular groove in a transverse fashion. Each segment was recorded and placed in formalin. After twenty-four (24) hours, the specimen was digitally photographed in a camera mount to normalize specimen-to-lens distance. Each photograph was then appended to Adobe Photoshop (Adobe™) to measure pixel density of infarcted versus non-infarcted areas. The percentage of infarction of each slide was expressed as a percentage of the entire area of the heart.
There was no significant difference in body weight, heart weight or risk zone size between groups. […] Significant differences were found for mean arterial pressure and rate pressure for some groups when compared to sham. For each group, the area at risk compared to total left ventricle weight was calculated. There were no significant differences seen between groups (data not shown).

Sprague Dawley rats [2] = assay: Coronary artery ligation model, Tpo given after the onset of reperfusion; type: in vivo, rat; settings: Tpo 0.05 μg/kg i.v. 10 seconds following reperfusion after 30 min regional ischemia
Procedure: FIG. 10 is a graphic depiction of the effect of Tpo (0.05 μg/kg) on myocardial infarct size in vivo (as percentage % of area at risk) when administered intravenously 10 seconds after the onset of 3 hours reperfusion following 30 minutes regional myocardial ischemia in vivo induced by suture ligation of the left main coronary artery. *=P<0.05, with Tpo vs. without Tpo (control).
as §1
A myocardial infarction was produced via the ligation of the left main artery using 6-0 prolene suture (See, e.g., Clements-Jewery, et al., supra, 2002; Farkas, et al., supra, 2002). Rats were anesthetized with sodium pentobarbital (50 mg/kg i.p.). The left main coronary artery was identified and ligated with a 5-0 Prolene suture threaded through a polyethylene tube to act as an occluder. […]
The heart was sectioned in 2 mm segments from apex to atrio-ventricular groove in a transverse fashion. Each segment was recorded and placed in formalin. […] The percentage of infarction of each slide was expressed as a percentage of the entire area of the heart.

[3] = 15 min ISCHEMIA, Tpo 0.005 μg/kg i.v.
[4] = 15 min ISCHEMIA, Tpo 0.05 μg/kg i.v.
[5] = 15 min ISCHEMIA, Tpo 0.5 μg/kg i.v.
[6] = 3 hr REPERFUSION, Tpo 0.005 μg/kg i.v.
[7] = 3 hr REPERFUSION, Tpo 0.05 μg/kg i.v.
[8] = 3 hr REPERFUSION, Tpo 0.5 μg/kg i.v.

Thrombopoietin [Tpo]
Heart rate (Sprague Dawley rats [1]; [3]): 374 ± 12 beats/min
Mean arterial pressure (Sprague Dawley rats [1]; [3]): 104 ± 11 mmHg
Heart rate (Sprague Dawley rats [1]; [4]): 352 ± 11 beats/min
Mean arterial pressure (Sprague Dawley rats [1]; [4]): 124 ± 11 mmHg
Heart rate (Sprague Dawley rats [1]; [5]): 382 ± 13 beats/min
Mean arterial pressure (Sprague Dawley rats [1]; [5]): 121 ± 13 mmHg
Heart rate (Sprague Dawley rats [1]; [6]): 359 ± 13 beats/min
Mean arterial pressure (Sprague Dawley rats [1]; [6]): 92 ± 7 mmHg
Heart rate (Sprague Dawley rats [1]; [7]): 332 ± 11 beats/min
Mean arterial pressure (Sprague Dawley rats [1]; [7]): 105 ± 11 mmHg
Heart rate (Sprague Dawley rats [1]; [8]): 364 ± 13 beats/min
Mean arterial pressure (Sprague Dawley rats [1]; [8]): 108 ± 16 mmHg
Heart rate (Sprague Dawley rats [1]; BASELINE, Tpo 0.005 μg/kg i.v.): 386 ± 17 beats/min
Mean arterial pressure (Sprague Dawley rats [1]; BASELINE, Tpo 0.005 μg/kg i.v.): 133 ± 13 mmHg
Heart rate (Sprague Dawley rats [1]; BASELINE, Tpo 0.05 μg/kg i.v.): 342 ± 16 beats/min
Mean arterial pressure (Sprague Dawley rats [1]; BASELINE, Tpo 0.05 μg/kg i.v.): 138 ± 6 mmHg
Heart rate (Sprague Dawley rats [1]; BASELINE, Tpo 0.5 μg/kg i.v.): 371 ± 11 beats/min
Mean arterial pressure (Sprague Dawley rats [1]; BASELINE, Tpo 0.5 μg/kg i.v.): 144 ± 6 mmHg
Optimal concentration of Tpo that afforded maximum reduction of infarct size (Sprague Dawley rats [1]; Tpo 0.005-0.5 μg/kg i.v. 15 min prior to ischemia): 0.05 µg/kg
Post ischemic myocardial infarct size (Sprague Dawley rats [1]; Tpo i.v. 15 min prior to 30 min regional ischemia, 3 hours reperfusion, 'U' shaped dose dependence): decreased
Myocardial infarct size (Sprague Dawley rats [2]): decrease

From US8518883B2, “Method of reducing deleterious effects of ischemia by administration of a thrombopoietin receptor ligand” (MCW Research Foundation, Inc., priority 2006, dated 2013)
